According to paper PMC9540480 (Clinical Pharmacology and Therapeutics, 2022):
In brackets after ≈: the same amount, converted by molar mass.

How the values were obtained:
[1] = Population PK model of oral enpatoran, phase I healthy participant study; assay type: in vivo, human; details: interindividual variability, PopPK model
IL-6 secretion (TLR7/8) = details: mice, mouse models of lupus; cited from earlier work
[2] = tested on: ex vivo-stimulated IL-6 secretion (TLR7/8); assay type: in vivo, human
[3] = cited from earlier work
[4] = tested on: IFN-α-accelerated NZB/W mouse model of lupus; details: cited from earlier work
Caco-2 = details: cited from earlier work
[5] = tested on: ex vivo-stimulated IFN-α secretion (TLR7/8); assay type: in vivo, human
[6] = cited from earlier work; remark: listed apart in the source
[7] = tested on: BXSB-Yaa mouse model of lupus; details: cited from earlier work
aldehyde oxidase enzyme = details: shown in vitro; cited from earlier work
[8] = phase I study in healthy participants; cited from earlier work

Structure (SMILES): N#Cc1ccc(N2C[C@H](N)C[C@H](C(F)(F)F)C2)c2cccnc12 [enpatoran, Enpatoran]
- IIV CL/F [1]: 27.5 %CV
- lowest (minimally) efficacious dose (IL-6 secretion (TLR7/8)): 1 mg/kg
- IC90 ([2]; Homo sapiens): 0.0155 µg/mL (≈ 0.0484 µM)
- inhibition of cytokine release with increasing enpatoran concentrations ([2]; IL-6, complete inhibition): 100%
- Hill factor ([2]; ex vivo-stimulated IL-6): > 1.5
- IC60 ([2]; ex vivo-stimulated IL-6, derived from IC50 and Hill factor): 0.00559 µg/mL (≈ 0.0175 µM)
- logP [3]: 2
- doses suppressing disease development [4]: ≥ 1 mg/kg
- Caco-2 permeability (Caco-2): 26 ×10⁻⁶ cm/s
- IC90 ([5]; Homo sapiens): 0.0221 µg/mL (≈ 0.069 µM)
- inhibition of cytokine release with increasing enpatoran concentrations ([5]; IFN-α, complete inhibition): 100%
- Hill factor ([5]; ex vivo-stimulated IFN-α): > 1.5
- IC60 ([5]; ex vivo-stimulated IFN-α, derived from IC50 and Hill factor): 0.00843 µg/mL (≈ 0.0263 µM)
- F (fraction of the oral dose systemically available) [6]: > 85%
- doses suppressing disease development [7]: ≥ 1 mg/kg
- metabolic route (aldehyde oxidase enzyme): metabolism via the aldehyde oxidase enzyme
- tolerability [8]: well‐tolerated
